Laboratory results reported in patent publication US9174969B2, “Indoline scaffold SHP-2 inhibitors and cancer treatment method” (UNIVERSITY OF SOUTH FLORIDA, priority 2008, dated 2015).

target: T1, Shp2 (Homo sapiens (Human), UniProt Q06124); experiment: not given; settings: background statement; cited from earlier work
Target sequence in this assay (Q06124 whole entry, species assumed): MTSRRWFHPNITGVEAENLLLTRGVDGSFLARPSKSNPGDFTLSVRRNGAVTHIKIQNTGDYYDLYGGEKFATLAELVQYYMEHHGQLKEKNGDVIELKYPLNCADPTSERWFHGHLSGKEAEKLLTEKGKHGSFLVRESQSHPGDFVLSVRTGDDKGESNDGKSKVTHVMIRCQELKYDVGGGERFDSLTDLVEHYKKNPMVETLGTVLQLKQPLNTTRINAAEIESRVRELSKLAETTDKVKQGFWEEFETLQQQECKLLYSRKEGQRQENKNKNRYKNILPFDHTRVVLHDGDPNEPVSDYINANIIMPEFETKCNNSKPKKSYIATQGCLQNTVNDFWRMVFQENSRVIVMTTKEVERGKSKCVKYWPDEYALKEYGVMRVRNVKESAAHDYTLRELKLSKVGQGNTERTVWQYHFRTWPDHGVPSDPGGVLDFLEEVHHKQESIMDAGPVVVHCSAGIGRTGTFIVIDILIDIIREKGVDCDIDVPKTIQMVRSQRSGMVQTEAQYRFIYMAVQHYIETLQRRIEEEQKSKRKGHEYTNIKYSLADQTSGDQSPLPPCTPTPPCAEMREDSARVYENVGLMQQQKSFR

Compound	inhibition of Shp2
CCOc1ccc(NC(=O)CN2C(=O)/C(=C3\SC(=S)C(CCS(=O)(=O)O)C3=O)c3ccccc32)cc1 (stereo not drawn) [CDL 4340-0580]	ability to inhibit Shp2

target: Shp1 (Homo sapiens (Human), UniProt P29350); experiment: not given; settings: background statement, non-selective; cited from earlier work
Sequence (P29350 whole entry): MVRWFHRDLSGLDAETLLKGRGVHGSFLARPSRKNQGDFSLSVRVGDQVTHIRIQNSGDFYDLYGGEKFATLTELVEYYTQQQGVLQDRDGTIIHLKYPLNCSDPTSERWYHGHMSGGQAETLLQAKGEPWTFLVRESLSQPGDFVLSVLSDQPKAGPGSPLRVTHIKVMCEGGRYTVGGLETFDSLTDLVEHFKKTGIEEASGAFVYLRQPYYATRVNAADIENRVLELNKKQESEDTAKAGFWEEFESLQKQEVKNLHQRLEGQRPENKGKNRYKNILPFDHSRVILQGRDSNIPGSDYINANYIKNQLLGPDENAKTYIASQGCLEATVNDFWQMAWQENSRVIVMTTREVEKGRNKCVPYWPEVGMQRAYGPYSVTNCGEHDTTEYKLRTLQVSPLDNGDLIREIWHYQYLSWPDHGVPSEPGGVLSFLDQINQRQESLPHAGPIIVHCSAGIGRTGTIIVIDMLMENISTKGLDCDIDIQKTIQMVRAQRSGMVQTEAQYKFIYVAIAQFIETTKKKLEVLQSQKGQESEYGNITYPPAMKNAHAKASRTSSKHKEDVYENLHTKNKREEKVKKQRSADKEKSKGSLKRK

Compound	inhibition of Shp1
CCOc1ccc(NC(=O)CN2C(=O)/C(=C3\SC(=S)C(CCS(=O)(=O)O)C3=O)c3ccccc32)cc1 (stereo not drawn) [CDL 4340-0580]	also inhibit tumor suppressor Shp1

target: T1, Shp2; experiment: in vitro phosphotyrosine phosphatase activity (DiFMUP) assay; type: biochemical; settings: mean ± spread over n tests
Protocol: All reagents were purchased from commercial suppliers and used without further purification. Melting points were determined using a Barnstead international melting point apparatus and remain uncorrected. ^1H NMR spectra were recorded on a Varian Mercury 400 MHz spectrometer with CDCl3 or DMSO-d6 as the solvent. ^13C NMR spectra are recorded at 100 MHz. All coupling constants are measured in Hertz (Hz) and the chemical shifts (δH and δC) are quoted in parts per million (ppm) relative to TMS (δ0), which was used as the internal standard. High resolution mass spectroscopy was carried out on an Agilent 6210 LC/MS (ESI-TOF). Microwave reactions were performed in CEM 908005 model and Biotage initiator 8 machines. HPLC analysis was performed using a JASCO HPLC system equipped with a PU-2089 Plus quaternary gradient pump and a UV-2075 Plus UV-VIS detector, using an Alitech Kromasil C-18 column (150×4.6 mm, 5 μm). Thin layer chromatography was performed using silica gel 60 F254 plates (Fisher), with observation under UV when necessary. Anhydrous solvents (acetonitrile, dimethyl formamide, ethanol, isopropanol, methanol and tetrahydrofuran) were used as purchased from Aldrich. HPLC grade solvents (methanol, acetonitrile and water) were purchased from Burdick and Jackson for HPLC and mass analysis.
Target sequence in this assay (Q06124 whole entry): as the sequence (Q06124 whole entry, species assumed) above

Compound	IC50 [µM]
O=C(O)c1cccc(NC(=O)N2CCc3cc(S(=O)(=O)N4CCN(c5cccc(Cl)c5)CC4)ccc32)c1 [JHE-02-020B, 3-(5-(4-(3-Chlorophenyl)piperazin-1-ylsulfonyl)indoline-1-carboxamido)benzoic acid]	3 ± 0.8
CCC(C)C(NC(=O)N1CCc2cc(S(=O)(=O)N3CCN(c4cccc(Cl)c4)CC3)ccc21)C(=O)OC (stereo not drawn) [JHE-02-029A, Methyl 2-(5-(4-(3-chlorophenyl)piperazin-1-ylsulfonyl)indoline-1-carboxamido)-3-methylpentanoate]	12.7 ± 0.7
O=C(Nc1cccc(Cl)c1)N1CCc2cc(S(=O)(=O)N3CCN(c4cccc(Cl)c4)CC3)ccc21 [JHE-02-032A, N-(3-Chlorophenyl)-5-(4-(3-chlorophenyl)piperazin-1-ylsulfonyl)indoline-1-carboxamide]	8.3 ± 3.4
COc1cccc(NC(=O)N2CCc3cc(S(=O)(=O)N4CCN(c5cccc(Cl)c5)CC4)ccc32)c1 [JHE-02-032B, 5-(4-(3-Chlorophenyl)piperazin-1-ylsulfonyl)-N-(3-methoxyphenyl)indoline-1-carboxamide]	9.9 ± 3.5
CCCC(=O)N1CCc2cc(S(=O)(=O)N3CCN(c4cccc(Cl)c4)CC3)ccc21 [JHE-02-033A, 1-(5-(4-(3-Chlorophenyl)piperazin-1-ylsulfonyl)indolin-1-yl)butan-1-one]	7.8 ± 2.1
CC(C)CC(=O)N1CCc2cc(S(=O)(=O)N3CCN(c4cccc(Cl)c4)CC3)ccc21 [JHE-02-033B, 1-(5-(4-(3-Chlorophenyl)piperazin-1-ylsulfonyl)indolin-1-yl)-3-methylbutan-1-one]	20.7 ± 10.8
COc1cccc(C(=O)N2CCc3cc(S(=O)(=O)N4CCN(c5cccc(Cl)c5)CC4)ccc32)c1 [JHE-02-035A, (5-(4-(3-chlorophenyl)piperazin-1-ylsulfonyl)indolin-1-yl)(3-methoxyphenyl)methanone]	8.1 ± 0.8
CCC(C)C(NC(=O)N1CCc2cc(S(=O)(=O)N3CCN(c4cccc(Cl)c4)CC3)ccc21)C(=O)O (stereo not drawn) [JHE-02-038, 2-(5-(4-(3-Chlorophenyl)piperazin-1-ylsulfonyl)indoline-1-carboxamido)-3-methylpentanoic acid]	15.5 ± 7.5
O=C(O)CC[C@H](NC(=O)N1CCc2cc(S(=O)(=O)N3CCN(c4cccc(Cl)c4)CC3)ccc21)C(=O)O [JHE-02-052, (S)-2-(5-(4-(3-Chlorophenyl)piperazin-1-ylsulfonyl)indoline-1-carboxamido)pentanedioic acid]	37.6 ± 13.8
O=C(Cc1ccc(Cl)cc1)N1CCc2cc(S(=O)(=O)N3CCN(c4cccc(Cl)c4)CC3)ccc21 [JHE-02-063B, 2-(4-Chlorophenyl)-1-(5-(4-(3-chlorophenyl)piperazin-1-ylsulfonyl)indolin-1-yl)ethanone]	8 ± 1.9
O=C(Nc1ccc(Cl)cc1)N1CCc2cc(S(=O)(=O)N3CCN(c4cccc(Cl)c4)CC3)ccc21 [JHE-02-065A, N-(4-Chlorophenyl)-5-(4-(3-chlorophenyl)piperazin-1-ylsulfonyl)indoline-1-carboxamide]	19.1 ± 5.1
O=C(Nc1ccccc1Cl)N1CCc2cc(S(=O)(=O)N3CCN(c4cccc(Cl)c4)CC3)ccc21 [JHE-02-065B, N-(2-Chlorophenyl)-5-(4-(3-chlorophenyl)piperazin-1-ylsulfonyl)indoline-1-carboxamide]	3.2 ± 0.5
O=C(O)C(O)CC(=O)N1CCc2cc(S(=O)(=O)N3CCN(c4cccc(Cl)c4)CC3)ccc21 (stereo not drawn) [JHE-02-067]	1.3 ± 0.5
O=C(Nc1ccc(Cl)c(Cl)c1)N1CCc2cc(S(=O)(=O)N3CCN(c4cccc(Cl)c4)CC3)ccc21 [JHE-02-068A, 5-(4-(3-Chlorophenyl)piperazin-1-ylsulfonyl)-N-(3,4-dichlorophenyl)indoline-1-carboxamide]	5.7 ± 2.5
CC(C)c1ccc(NC(=O)N2CCc3cc(S(=O)(=O)N4CCN(c5cccc(Cl)c5)CC4)ccc32)cc1 [JHE-02-068B, 5-(4-(3-Chlorophenyl)piperazin-1-ylsulfonyl)-N-(4-isopropylphenyl)indoline-1-carboxamide]	4.1 ± 1
CC1Cc2cc(S(=O)(=O)N3CCN(c4cccc(Cl)c4)CC3)ccc2N1C(=O)C(F)(F)F (stereo not drawn) [JHE-02-117, 1-(5-(4-(3-chlorophenyl)piperazin-1-ylsulfonyl)-2-methylindolin-1-yl)-2,2,2-trifluoroethanone]	47 ± 17.7

Compound	IC50 [µM]
CC1Cc2cc(S(=O)(=O)N3CCN(c4cccc(Cl)c4)CC3)ccc2N1C(=O)CCC(=O)O (stereo not drawn) [JHE-02-119, 4-(5-(4-(3-Chlorophenyl)piperazin-1-ylsulfonyl)-2-methylindolin-1-yl)-4-oxobutanoic acid]	2.5 ± 0.5
O=C(O)CCC(=O)N1CCc2cc(S(=O)(=O)N3CCN(c4ccc(F)cc4)CC3)ccc21 [XW2-011B, 4-(5-(4-(4-Fluorophenyl)piperazin-1-ylsulfonyl)indolin-1-yl)-4-oxobutanoic acid]	31.9 ± 10
O=C(O)CCC(=O)N1CCc2cc(S(=O)(=O)N3CCN(c4cccc(C(F)(F)F)c4)CC3)ccc21 [XW2-031B, 4-oxo-4-(5-(4-(3-(trifluoromethyl)phenyl)piperazin-1-ylsulfonyl)indolin-1-yl)butanoic acid]	11.3 ± 3.1
O=C(O)CCC(=O)N1CCc2cc(S(=O)(=O)N3CCN(c4ccc(Cl)c(Cl)c4)CC3)ccc21 [XW2-036, 4-(5-(4-(3,4-Dichlorophenyl)piperazin-1-ylsulfonyl)indolin-1-yl)-4-oxobutanoic acid]	4.6 ± 2.4
O=C(O)CCC(=O)N1CCc2cc(S(=O)(=O)N3CCN(c4ccccc4)CC3)ccc21 [XW2-038A, 4-oxo-4-(5-(4-Phenylpiperazin-1-ylsulfonyl)indolin-1-yl)butanoic acid]	14.8 ± 7.3
O=C(O)CCC(=O)N1CCc2cc(S(=O)(=O)N3CCN(c4ccccc4F)CC3)ccc21 [XW2-038D, 4-(5-(4-(2-Fluorophenyl)piperazin-1-ylsulfonyl)indolin-1-yl)-4-oxobutanoic acid]	34.6 ± 12.6
COc1ccc(N2CCN(S(=O)(=O)c3ccc4c(c3)CCN4C(=O)CCC(=O)O)CC2)cc1 [XW2-038E, 4-(5-(4-(4-Methoxyphenyl)piperazin-1-ylsulfonyl)indolin-1-yl)-4-oxobutanoic acid]	9 ± 5.9
COc1cccc(N2CCN(S(=O)(=O)c3ccc4c(c3)CCN4C(=O)CCC(=O)O)CC2)c1 [XW2-038F, 4-(5-(4-(3-Methoxyphenyl)piperazin-1-ylsulfonyl)indolin-1-yl)-4-oxobutanoic acid]	4.7 ± 4.4
O=C(O)CCC(=O)N1CCc2cc(S(=O)(=O)N3CCN(c4cccc(Cl)c4Cl)CC3)ccc21 [XW2-038G, 4-(5-(4-(2,3-Dichlorophenyl)piperazin-1-ylsulfonyl)indolin-1-yl)-4-oxobutanoic acid]	144 ± 89.5
O=C(O)CCC(=O)N1CCc2cc(S(=O)(=O)N3CCN(c4cccc(Cl)c4)CC3)ccc21 [XW2-038H, 4-(5-(4-(3-Chlorophenyl)piperazin-1-ylsulfonyl)indolin-1-yl)-4-oxobutanoic acid]	0.7 ± 0.3
O=C(O)CCC(=O)N1CCc2cc(S(=O)(=O)N3CCN(c4cc(C(F)(F)F)cc(C(F)(F)F)c4)CC3)ccc21 [XW2-119, 4-(5-(4-(3,5-Bis(trifluoromethyl)phenyl)piperazin-1-ylsulfonyl)indolin-1-yl)-4-oxobutanoic acid]	9.1 ± 1.6
O=C(O)CCC(=O)N1CCc2cc(S(=O)(=O)N3CCN(c4cccc(F)c4)CC3)ccc21 [XW2-124A, 4-(5-(4-(3-Fluorophenyl)piperazin-1-ylsulfonyl)indolin-1-yl)-4-oxobutanoic acid]	13.2 ± 3.6
O=C(O)CCC(=O)N1CCc2cc(S(=O)(=O)N3CCN(c4cc(Cl)cc(Cl)c4)CC3)ccc21 [XW2-124B, 4-(5-(4-(3,5-Dichlorophenyl)piperazin-1-ylsulfonyl)indolin-1-yl)-4-oxobutanoic acid]	4.5 ± 1.2
Cc1ccc(Cl)cc1N1CCN(S(=O)(=O)c2ccc3c(c2)CCN3C(=O)CCC(=O)O)CC1 [XW2-125B, 4-(5-(4-(5-Chloro-2-methylphenyl)piperazin-1-ylsulfonyl)indolin-1-yl)-4-oxobutanoic acid]	1.5
Cc1ccc(N2CCN(S(=O)(=O)c3ccc4c(c3)CCN4C(=O)CCC(=O)O)CC2)cc1Cl [XW3-006, 4-(5-(4-(3-Chloro-4-methylphenyl)piperazin-1-ylsulfonyl)indolin-1-yl)-4-oxobutanoic acid]	16.6 ± 3.6
